Test results from publication PMC8570591 (ACS catalysis, 2021).

Target: T1, EanB (Chlorobium limicola, UniProt B3ECE3)
T1 sequence (B3ECE3 1-457): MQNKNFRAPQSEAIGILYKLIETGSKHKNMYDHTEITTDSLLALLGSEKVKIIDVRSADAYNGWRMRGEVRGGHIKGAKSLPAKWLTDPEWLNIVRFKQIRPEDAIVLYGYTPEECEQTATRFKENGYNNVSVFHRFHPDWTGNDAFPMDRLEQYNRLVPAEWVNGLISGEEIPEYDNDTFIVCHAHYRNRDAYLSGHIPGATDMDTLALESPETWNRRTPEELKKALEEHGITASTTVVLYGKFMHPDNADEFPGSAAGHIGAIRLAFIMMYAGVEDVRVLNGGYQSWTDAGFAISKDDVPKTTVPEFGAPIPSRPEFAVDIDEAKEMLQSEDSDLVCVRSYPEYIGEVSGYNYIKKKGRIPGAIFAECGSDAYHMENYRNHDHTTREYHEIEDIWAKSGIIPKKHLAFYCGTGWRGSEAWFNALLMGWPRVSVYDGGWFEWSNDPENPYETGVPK
Assay: hercynine epsilon-C-H/D2O exchange kinetics by LC-MS, purified enzyme
Format: biochemical

Structure (SMILES): C[N+](C)(C)[C@@H](Cc1cnc[nH]1)C(=O)[O-] [compound 2, hercynine]
- Kd: 161 ± 18.6 µM
